{"source": "PubChem BioAssay (NCI)", "assay_in_all_cases": "NCI tumour cell line growth inhibition, 48 h", "key": {"EKVX NSCLC": {"test_system": "EKVX NSCLC"}, "HS 578T breast": {"test_system": "HS 578T breast"}, "HL-60(TB) leukemia": {"test_system": "HL-60(TB) leukemia"}, "MCF7 breast": {"test_system": "MCF7 breast"}, "TK-10 renal": {"test_system": "TK-10 renal"}, "UACC-257 melanoma": {"test_system": "UACC-257 melanoma"}, "KM12 colon": {"test_system": "KM12 colon"}, "RPMI-8226 leukemia": {"test_system": "RPMI-8226 leukemia"}, "PC-3 prostate": {"test_system": "PC-3 prostate"}, "786-0 renal": {"test_system": "786-0 renal"}}, "note": "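Cells were grown in 96-well plates and exposed to each compound for 48 hours at five concentrations; endpoints were interpolated linearly between bracketing concentrations, or set to the highest concentration if not reached. GI50: concentration for 50% inhibition of growth. TGI: concentration producing complete growth inhibition.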"}
{"smiles": "CC1(C)CC[C@]2(C(N)=O)CC[C@]3(C)C(=CC[C@@H]4[C@@]5(C)C/C(=C/c6ccncc6)C(=O)C(C)(C)[C@@H]5CC[C@]43C)[C@@H]2C1", "values": [{"measurement": "GI50", "setting": "EKVX NSCLC", "value": 2.44, "unit": "µM"}, {"measurement": "TGI", "setting": "EKVX NSCLC", "value": 9.46, "unit": "µM"}, {"measurement": "GI50", "setting": "HS 578T breast", "value": 3.07, "unit": "µM"}, {"measurement": "TGI", "setting": "HS 578T breast", "value": "> 100", "unit": "µM"}, {"measurement": "GI50", "setting": "HL-60(TB) leukemia", "value": 1.98, "unit": "µM"}, {"measurement": "TGI", "setting": "HL-60(TB) leukemia", "value": 4.59, "unit": "µM"}, {"measurement": "GI50", "setting": "MCF7 breast", "value": 2.52, "unit": "µM"}, {"measurement": "TGI", "setting": "MCF7 breast", "value": 10.5, "unit": "µM"}, {"measurement": "GI50", "setting": "TK-10 renal", "value": 2.43, "unit": "µM"}, {"measurement": "TGI", "setting": "TK-10 renal", "value": 7.5, "unit": "µM"}, {"measurement": "GI50", "setting": "UACC-257 melanoma", "value": 2.32, "unit": "µM"}, {"measurement": "TGI", "setting": "UACC-257 melanoma", "value": 6.68, "unit": "µM"}, {"measurement": "GI50", "setting": "KM12 colon", "value": 1.79, "unit": "µM"}, {"measurement": "TGI", "setting": "KM12 colon", "value": 3.41, "unit": "µM"}, {"measurement": "GI50", "setting": "RPMI-8226 leukemia", "value": 1.73, "unit": "µM"}, {"measurement": "TGI", "setting": "RPMI-8226 leukemia", "value": 4.44, "unit": "µM"}, {"measurement": "GI50", "setting": "PC-3 prostate", "value": 1.37, "unit": "µM"}, {"measurement": "TGI", "setting": "PC-3 prostate", "value": 3.51, "unit": "µM"}, {"measurement": "GI50", "setting": "786-0 renal", "value": 2.25, "unit": "µM"}, {"measurement": "TGI", "setting": "786-0 renal", "value": 7.62, "unit": "µM"}]}
{"smiles": "CC1(C)OC2C(COS(N)(=O)=O)SC(n3cnc4cncnc43)C2O1", "note": "(stereo not given)", "values": [{"measurement": "GI50", "setting": "EKVX NSCLC", "value": "> 100", "unit": "µM"}, {"measurement": "TGI", "setting": "EKVX NSCLC", "value": "> 100", "unit": "µM"}, {"measurement": "GI50", "setting": "HS 578T breast", "value": "> 100", "unit": "µM"}, {"measurement": "TGI", "setting": "HS 578T breast", "value": "> 100", "unit": "µM"}, {"measurement": "GI50", "setting": "HL-60(TB) leukemia", "value": "> 100", "unit": "µM"}, {"measurement": "TGI", "setting": "HL-60(TB) leukemia", "value": "> 100", "unit": "µM"}, {"measurement": "GI50", "setting": "MCF7 breast", "value": "> 100", "unit": "µM"}, {"measurement": "TGI", "setting": "MCF7 breast", "value": "> 100", "unit": "µM"}, {"measurement": "GI50", "setting": "TK-10 renal", "value": "> 100", "unit": "µM"}, {"measurement": "TGI", "setting": "TK-10 renal", "value": "> 100", "unit": "µM"}, {"measurement": "GI50", "setting": "UACC-257 melanoma", "value": "> 100", "unit": "µM"}, {"measurement": "TGI", "setting": "UACC-257 melanoma", "value": "> 100", "unit": "µM"}, {"measurement": "GI50", "setting": "KM12 colon", "value": "> 100", "unit": "µM"}, {"measurement": "TGI", "setting": "KM12 colon", "value": "> 100", "unit": "µM"}, {"measurement": "GI50", "setting": "RPMI-8226 leukemia", "value": "> 100", "unit": "µM"}, {"measurement": "TGI", "setting": "RPMI-8226 leukemia", "value": "> 100", "unit": "µM"}, {"measurement": "GI50", "setting": "PC-3 prostate", "value": "> 100", "unit": "µM"}, {"measurement": "TGI", "setting": "PC-3 prostate", "value": "> 100", "unit": "µM"}, {"measurement": "GI50", "setting": "786-0 renal", "value": "> 100", "unit": "µM"}, {"measurement": "TGI", "setting": "786-0 renal", "value": "> 100", "unit": "µM"}]}
{"smiles": "CC1CCC2N(C1)CC1C3(O)CC45OC6(O)C(O)CCC4(C)C6CCC5C3(O)CC(O)C1(O)C2(C)O", "note": "(stereo not given)", "values": [{"measurement": "TGI", "setting": "EKVX NSCLC", "value": "> 100", "unit": "µM"}, {"measurement": "TGI", "setting": "HS 578T breast", "value": "> 100", "unit": "µM"}, {"measurement": "TGI", "setting": "HL-60(TB) leukemia", "value": "> 100", "unit": "µM"}, {"measurement": "TGI", "setting": "MCF7 breast", "value": "> 100", "unit": "µM"}, {"measurement": "TGI", "setting": "TK-10 renal", "value": "> 100", "unit": "µM"}, {"measurement": "TGI", "setting": "UACC-257 melanoma", "value": "> 100", "unit": "µM"}, {"measurement": "TGI", "setting": "KM12 colon", "value": "> 100", "unit": "µM"}, {"measurement": "TGI", "setting": "RPMI-8226 leukemia", "value": "> 100", "unit": "µM"}, {"measurement": "TGI", "setting": "PC-3 prostate", "value": "> 100", "unit": "µM"}, {"measurement": "TGI", "setting": "786-0 renal", "value": "> 100", "unit": "µM"}]}
